Measurements as given in patent US20090030083A1, “Use of n-(2-aryl-propionyl)-sulfonamides for the treatment of spinal cord injury” (Dompe' pha.r.ma S.p.A, priority 2004, published 2009).

What was measured:
CD68 positive cells = experiment: leukocyte infiltration after SCI (CD68 positive cells); type: in vivo, rat; conditions: for Number of infiltrated leukocytes (mean ± SE; n = 8): 15 mg/kg i.v. then s.c.
Method: (§1) Adult Sprague-Dawley rats (females) weighing 240-260 g were maintained in the animal facilities under standard housing conditions (22±2° C., 65% humidity, artificial light from 06.00-20.00 h). A standard dry diet and water were available ad libitum. SCI in the rat was performed as previously reported (Gorio A. et al. Proc. Natl. Acad. Sci. USA 99, 9450-9455, 2002). The lesioning apparatus is computer controlled and free of the influence of gravity force. The force applied was 1N per 1 second. Leukocyte infiltration was quantitatively estimated by CD68 positive cells 1 and 7 days after SCI. […] The following days the animals were treated s.c. at 8 am and 5 pm until the 7th day after SCI. Animals were treated with compound of formula (III) (8 mg/kg) by i.v. injection within 30 minutes after SCI, then s.c. 24 hours after SCI. The following days the animals were treated s.c. every 36 hours until the 7th day after SCI.

oligodendrocytes = experiment: apoptosis of oligodendrocytes after SCI (TUNEL); type: in vivo, rat; conditions: 28 days after SCI; for inhibition of oligodendrocyte apoptosis: vs saline; for Number of oligodendrocyte apoptic nuclei (mean ± SE; n = 12): gracilis and cuneatus fascicle, saline 14.9 ± 2
Method: Adult Sprague-Dawley rats (females) weighing 240-260 g were maintained in the animal facilities under standard housing conditions (22±2° C., 65% humidity, artificial light from 06.00-20.00 h). A standard dry diet and water were available ad libitum. SCI in the rat was performed as previously reported (Gorio A. et al. Proc. Natl. Acad. Sci. USA 99, 9450-9455, 2002). The lesioning apparatus is computer controlled and free of the influence of gravity force. The force applied was 1N per 1 second. Apoptosis of oligodendrocytes was determined at the level of the gracilis and cuneatus fascicle (3 mm rostrally from the site of contusion injury) 28 days after SCI using the terminal deoxynucleotidyltransferase-mediated dUTP and labeling (TUNEL) methodology. […] The following days the animals were treated s.c. at 8 am and 5 pm until the 7th day after SCI. Animals were treated with compound of formula (III) (8 mg/kg) by i.v. injection within 30 minutes after SCI, then s.c. 24 hours after SCI. The following days the animals were treated s.c. every 36 hours until the 7th day after SCI.

SCI in the rat [1] = experiment: extension of post-traumatic cavity / spared tissue at lesion site (histology); type: in vivo; conditions: 28 days after SCI; for Percentage of spared tissue at lesion site (mean ± SE; n = 12), Lesion Epicenter: saline 39.8 ± 3.9; for Percentage of spared tissue at lesion site (mean ± SE; n = 12), Cavity Volume: saline 46.6 ± 3.1
Method: as §1, with “Extension of post-traumatic cavity” for “Leukocyte infiltration”, “performed” for “quantitatively estimated”, “classical histological techniques 28” for “CD68 positive cells 1 and 7”

SCI in the rat [2] = experiment: free locomotion test (BBB scale) after SCI, i.v./s.c. injection; type: in vivo; conditions: i.v. within 30 minutes after SCI then s.c. until 7th day; (II) 15 mg/kg, (III) 8 mg/kg; FIG. 1 and 2
Method: Adult Sprague-Dawley rats (females) weighing 240-260 g were maintained in the animal facilities under standard housing conditions (22±2° C., 65% humidity, artificial light from 06.00-20.00 h). A standard dry diet and water were available ad libitum. […] The force applied was 1N per 1 second. Recovery from hind limb disability was evaluated by means of “free locomotion test” performed 24 hours, 4, 7, 11, 15, 19 and 27 days after SCI. The “free locomotion test” allows the detection of feet positioning, and joint rotation. The quality of functional recovery is quantitatively expressed according to the “BBB scale” developed at the Ohio University. Such a test allows the quantification of rat hind limb free locomotion deficits by observing their movements in an open space free of obstacles: 0—Lesioned rat cannot move either limbs 1—Small movement of a joint (heap or knee) From 2 to 6—Movement in progressive extension of the 3 joints 7—Good movement of the 3 joints 8—Animals walk without plantar support of the weight From 9 to 11—Animals walk from occasionally to progressively frequent with plantar support of the weight. 12—Occasional coordination of hind limbs and forelimbs during walk From 13 to 14—Progressive coordination with the forelimbs. 15—Consistent plantar support of weight and coordination during walk; occasional movement of fingers during advancement. […]

SMILES	Number of infiltrated leukocytes (mean ± SE; n = 8) (CD68 positive cells; Epicenter, 1 day from SCI, saline 125 ± 36)	Number of infiltrated leukocytes (mean ± SE; n = 8) (CD68 positive cells; Epicenter, 7 days from SCI, saline 235 ± 54)	Number of infiltrated leukocytes (mean ± SE; n = 8) (CD68 positive cells; Periphery, 1 day from SCI, saline 56 ± 13)	Number of infiltrated leukocytes (mean ± SE; n = 8) (CD68 positive cells; Periphery, 7 days from SCI, saline 99 ± 32)	inhibition of leukocyte infiltration (CD68 positive cells; at 24 hours and 7 days after SCI, vs saline)	inhibition of oligodendrocyte apoptosis (oligodendrocytes)	Number of oligodendrocyte apoptic nuclei (mean ± SE; n = 12) (oligodendrocytes)	tissue damage at the site of the lesion and extension of post-traumatic cavity, in words (SCI in the rat [1])	Percentage of spared tissue at lesion site (mean ± SE; n = 12), Lesion Epicenter (SCI in the rat [1])	Percentage of spared tissue at lesion site (mean ± SE; n = 12), Cavity Volume (SCI in the rat [1])	functional hind limb recovery (motor score, BBB scale), in words (SCI in the rat [2])
CC(C)Cc1ccc([C@@H](C)C(=O)NS(C)(=O)=O)cc1 [compound of formula (II), (R)-ibuprofen methanesulfonamide]	24 ± 3	19 ± 3	3 ± 1	4 ± 2	80%	85%	2.1 ± 1.2	significantly reduced tissue damage	48.9 ± 3.0 %	58.2 ± 2.9 %	–
C[C@@H](C(=O)NS(C)(=O)=O)c1ccc(OS(=O)(=O)C(F)(F)F)cc1 [compound of formula (III), R-2-[(4′-trifluoromethanesulphonyloxy)phenyl]-N-methanesulfonyl propionamide]	–	–	–	–	–	65%	5.2 ± 3.8	significantly reduced tissue damage	49.7 ± 4.2 %	60.4 ± 4.3 %	significantly promoted functional hind limb recovery
